For 21 compounds, Ki results are on record in patent US20210047304A1, “Bromodomain Inhibitors” (AbbVie Inc., priority 2016, published 2021).

Molecules are shown by their SMILES. Where only a bound is given, the exact number is not on record here.

The target of the assay is BRD4 (BDI_K57-E168) (Homo sapiens, UniProt O60885). Put plainly: TR-FRET bromodomain binding assay, BRD4 BDI. The procedure: A time-resolved fluorescence resonance energy transfer (TR-FRET) assay was used to determine the affinities of compounds of the Examples listed in Table 1 for each bromodomain of BRD4. […] An Alexa647-labeled BET-inhibitor was used as the fluorescent probe in the assay.
Compound dilution series were prepared in DMSO via an approximately 3-fold serial dilution. Compound dilutions were added directly into white, low-volume assay plates (Perkin Elmer Proxiplate 384 Plus #6008280) using a Labcyte Echo in conjunction with Labcyte Access and Thermo Multidrop CombinL robotics. Compounds were then suspended in eight microliters (μL) of assay buffer (20 mM Sodium Phosphate, pH 6.0, 50 mM NaCl, 1 mM Ethylenediaminetetraacetic acid disodium salt dihydrate, 0.01% Triton X-100, 1 mM DL-Dithiothreitol) containing His-tagged bromodomain, Europium-conjugated anti-His antibody (Invitrogen PV5596) and Alexa-647-conjugated probe.
After a one-hour equilibration at room temperature, TR-FRET ratios were determined using an Envision multilabel plate reader (Ex 340, Em 495/520).
TR-FRET data were normalized to the means of 24 no-compound controls (“high”) and 8 controls containing 1 μM un-labeled probe (“low”). Percent inhibition was plotted as a function of compound concentration and the data were fit with the 4 parameter logistic equation to obtain IC50s. Inhibition constants (Ki) were calculated from the IC50s, probe Kd and probe concentration.
Compound dilution series for Compounds A-E were prepared in DMSO via an approximately 3-fold serial dilution from 0.47 mM to 7.8 nM.
Compound dilutions were added directly into white, low-volume assay plates (Perkin Elmer Proxiplate 384 Plus #6008280) using a Labcyte Echo in conjunction with Labcyte Access and Thermo Multidrop CombinL robotics. Compounds were then suspended in eight microliters (μL) of assay buffer (20 mM Sodium Phosphate, pH 6.0, 50 mM NaCl, 1 mM Ethylenediaminetetraacetic acid disodium salt dihydrate, 0.01% Triton X-100, 1 mM DL-Dithiothreitol) containing His-tagged bromodomain, Europium-conjugated anti-His antibody (Invitrogen PV5596) and Alexa-647-conjugated probe.
TR-FRET data were normalized to the means of 24 no-compound controls (“high”) and 8 controls containing 1 μM un-labeled probe (“low”). Percent inhibition was plotted as a function of compound concentration and the data were fit with the 4 parameter logistic equation to obtain IC50s. Inhibition constants (Ki) were calculated from the IC50s, probe Kd and probe concentration. Typical Z′ values were between 0.65 and 0.75. The minimum significant ratio was determined to evaluate assay reproducibility (Eastwood et al., (2006) J Biomol Screen, 11: 253-261). The MSR was determined to be 2.03 for BDI and 1.93 for BDII, and a moving MSR (last six run MSR overtime) for both BDI and BDII was typically <3.
Usually Ki stands for the equilibrium dissociation constant of an inhibitor or competing ligand from its target. A higher Ki goes with a looser hold on the target. For the compound `Cc1cc(F)cc(C)c1Oc1ccc(C(C)(C)O)cc1-c1cn(C)c(=O)cc1NC1CCN(S(C)(=O)=O)CC1` [Example 9, 5-[2-(4-fluoro-2,6-dimethylphenoxy)-5-(2-hydroxypropan-2-yl)phenyl]-4-{[1-(methanesulfonyl)piperidin-4-yl]amino}-1-methylpyridin-2(1H)-one], affinity was put at a Ki of 3680 nM.

`CC(=O)NC1CC2(C1)CC(Nc1cc(=O)n(C)cc1-c1cc(C(C)(C)O)ccc1Oc1c(C)cccc1C)C2` (stereo not drawn) [Example 10, N-[6-({5-[2-(2,6-dimethylphenoxy)-5-(2-hydroxypropan-2-yl)phenyl]-1-methyl-2-oxo-1,2-dihydropyridin-4-yl}amino)spiro[3.3]heptan-2-yl]acetamide] had a Ki of 2330 nM.

With `Cc1cccc(C)c1Oc1ccc(C(C)(C)O)cc1-c1cn(C)c(=O)cc1NC1CCN(C(=O)OC(C)(C)C)C1` (stereo not drawn) [Example 11, tert-butyl 3-({5-[2-(2,6-dimethylphenoxy)-5-(2-hydroxypropan-2-yl)phenyl]-1-methyl-2-oxo-1,2-dihydropyridin-4-yl}amino)pyrrolidine-1-carboxylate], the affinity corresponds to a Ki of 1270 nM.

Turning to `Cc1cccc(C)c1Oc1ccc(C(C)(C)O)cc1-c1cn(C)c(=O)cc1NC1CCN(S(C)(=O)=O)C1` (stereo not drawn) [Example 12, 5-[2-(2,6-dimethylphenoxy)-5-(2-hydroxypropan-2-yl)phenyl]-4-{[1-(methanesulfonyl)pyrrolidin-3-yl]amino}-1-methylpyridin-2(1H)-one], the inhibition constant (Ki) worked out at 553 nM.

For the compound `CC(=O)N[C@H]1CC[C@H](N(C)c2cc(=O)n(C)cc2-c2cc(C(C)(C)O)ccc2Oc2c(C)cc(F)cc2C)CC1` [Example 13, N-{trans-4-[{5-[2-(4-fluoro-2,6-dimethylphenoxy)-5-(2-hydroxypropan-2-yl)phenyl]-1-methyl-2-oxo-1,2-dihydropyridin-4-yl}(methyl)amino]cyclohexyl}acetamide], the Ki was > 13000 nM.

For the compound `CC(=O)N1CCC(Nc2cc(=O)n(C)cc2-c2cc(C(C)(C)O)ccc2Oc2c(C)cccc2C)C1` (stereo not drawn) [Example 14, 4-[(1-acetylpyrrolidin-3-yl)amino]-5-[2-(2,6-dimethylphenoxy)-5-(2-hydroxypropan-2-yl)phenyl]-1-methylpyridin-2(1H)-one], affinity was put at a Ki of 1550 nM.

As to `Cc1cc(F)cc(C)c1Oc1ccc(C(C)(C)O)cc1-c1cn(C)c(=O)cc1O[C@H]1CC[C@H](CNC(=O)OC(C)(C)C)CC1` [Example 15, tert-butyl [trans-4-({5-[2-(4-fluoro-2,6-dimethylphenoxy)-5-(2-hydroxypropan-2-yl)phenyl]-1-methyl-2-oxo-1,2-dihydropyridin-4-yl}oxy)cyclohexyl]methylcarbamate], the Ki was 6020 nM.

With `CC(=O)N(C)[C@H]1CC[C@H](Oc2cc(=O)n(C)cc2-c2cc(C(C)(C)O)ccc2Oc2c(C)cc(F)cc2C)CC1` [Example 16, N-[trans-4-({5-[2-(4-fluoro-2,6-dimethylphenoxy)-5-(2-hydroxypropan-2-yl)phenyl]-1-methyl-2-oxo-1,2-dihydropyridin-4-yl}oxy)cyclohexyl]-N-methylacetamide], the Ki came out at 2830 nM.

Turning to `CC(=O)N[C@H]1CC[C@H](Oc2cc(=O)n(C)cc2-c2cc(C(C)(C)O)cnc2Oc2c(C)cc(C(C)(C)O)cc2C)CC1` [Example 17, N-[trans-4-({5′-(2-hydroxypropan-2-yl)-2′-[4-(2-hydroxypropan-2-yl)-2,6-dimethylphenoxy]-1-methyl-6-oxo[1,6-dihydro[3,3′-bipyridine]]-4-yl}oxy)cyclohexyl]acetamide], the affinity, expressed as Ki, was 1170 nM.

For the compound `CC(=O)N[C@H]1CC[C@H](Oc2cc(=O)n(C)cc2-c2cc(C(C)(C)O)ccc2Oc2c(C)cc(C(C)(C)O)cc2C)CC1` [Example 18, N-{trans-4-[(5-{5-(2-hydroxypropan-2-yl)-2-[4-(2-hydroxypropan-2-yl)-2,6-dimethylphenoxy]phenyl}-1-methyl-2-oxo-1,2-dihydropyridin-4-yl)oxy]cyclohexyl}acetamide], the Ki is 982 nM.

Regarding `CC(=O)N[C@H]1CC[C@H](Nc2cc(=O)n(C)cc2-c2cc(C(C)(C)O)ccc2Oc2c(C)cc(F)cc2C)CC1` [Example 19, N-[trans-4-({5-[2-(4-fluoro-2,6-dimethylphenoxy)-5-(2-hydroxypropan-2-yl)phenyl]-1-methyl-2-oxo-1,2-dihydropyridin-4-yl}amino)cyclohexyl]acetamide], the Ki was determined as 2890 nM.

With `COC(=O)N[C@H]1CC[C@H](Oc2cc(=O)n(C)cc2-c2cc(C(C)(C)O)ccc2Oc2c(C)cc(C(C)(C)O)cc2C)CC1` [Example 20, methyl {trans-4-[(5-{5-(2-hydroxypropan-2-yl)-2-[4-(2-hydroxypropan-2-yl)-2,6-dimethylphenoxy]phenyl}-1-methyl-2-oxo-1,2-dihydropyridin-4-yl)oxy]cyclohexyl}carbamate], the affinity corresponds to a Ki of 1090 nM.

Take `CC(=O)NC[C@@H]1CC[C@H](Oc2cc(=O)n(C)cc2-c2cc(C(C)(C)O)ccc2Oc2c(C)cc(F)cc2C)[C@H]1C` [Example 22, N-{[(1R,2S,3S)-3-({5-[2-(4-fluoro-2,6-dimethylphenoxy)-5-(2-hydroxypropan-2-yl)phenyl]-1-methyl-2-oxo-1,2-dihydropyridin-4-yl}oxy)-2-methylcyclopentyl]methyl}acetamide]: the affinity, expressed as Ki, was 2870 nM.

In turn, `Cc1cc(F)cc(C)c1Oc1ccc(C(C)(C)O)cc1-c1cn(C)c(=O)cc1NC1CCC(C)(O)CC1` (stereo not drawn) [Example 23, 5-[2-(4-fluoro-2,6-dimethylphenoxy)-5-(2-hydroxypropan-2-yl)phenyl]-4-[(trans-4-hydroxy-4-methylcyclohexyl)amino]-1-methylpyridin-2(1H)-one] gave a Ki of 3630 nM.

In turn, `Cc1cc(F)cc(C)c1Oc1ccc(C(C)(C)O)cc1-c1cn(C)c(=O)cc1O[C@H]1CC[C@H](N2CCCC2=O)CC1` [Example 24, 5-[2-(4-fluoro-2,6-dimethylphenoxy)-5-(2-hydroxypropan-2-yl)phenyl]-1-methyl-4-{[trans-4-(2-oxopyrrolidin-1-yl)cyclohexyl]oxy}pyridin-2(1H)-one] gave an inhibition constant (Ki) of 2860 nM.

Consider `COC(=O)N[C@H]1CC[C@H](Oc2cc(=O)n(C)cc2-c2cc(C(C)(C)O)cnc2Oc2c(C)cc(C(C)(C)O)cc2C)CC1` [Example 25, methyl [trans-4-({5′-(2-hydroxypropan-2-yl)-2′-[4-(2-hydroxypropan-2-yl)-2,6-dimethylphenoxy]-1-methyl-6-oxo[1,6-dihydro[3,3′-bipyridine]]-4-yl}oxy)cyclohexyl]carbamate], for which affinity was put at a Ki of 2220 nM.

`COCC(=O)N1CCC(Oc2cc(=O)n(C)cc2-c2cc(C(C)(C)O)cnc2Oc2c(C)cc(F)cc2C)CC1` [Example 26, 2′-(4-fluoro-2,6-dimethylphenoxy)-5′-(2-hydroxypropan-2-yl)-4-{[1-(methoxyacetyl)piperidin-4-yl]oxy}-1-methyl[3,3′-bipyridin]-6(1H)-one] yielded a Ki of 8850 nM.

Compound `Cc1cccc(C)c1Oc1ccc(C(C)(C)O)cc1-c1cn(C)c(=O)cc1O[C@H]1CC[C@H](N2CCCC2=O)CC1` [Example 27, 5-[2-(2,6-dimethylphenoxy)-5-(2-hydroxypropan-2-yl)phenyl]-1-methyl-4-{[trans-4-(2-oxopyrrolidin-1-yl)cyclohexyl]oxy}pyridin-2(1H)-one] had a Ki of 1900 nM.

`C=CC(=O)N[C@H]1CC[C@H](Oc2cc(=O)n(C)cc2-c2cc(C(C)(C)O)ccc2Oc2c(C)cc(F)cc2C)CC1` [Example 28, N-[trans-4-({5-[2-(4-fluoro-2,6-dimethylphenoxy)-5-(2-hydroxypropan-2-yl)phenyl]-1-methyl-2-oxo-1,2-dihydropyridin-4-yl}oxy)cyclohexyl]prop-2-enamide] had a Ki of 1520 nM.

As to `Cc1cc(F)cc(C)c1Oc1ccc(C(C)(C)O)cc1-c1cn(C)c(=O)cc1O[C@H]1CC[C@H](N2CCCCC2=O)CC1` [Example 29, 5-[2-(4-fluoro-2,6-dimethylphenoxy)-5-(2-hydroxypropan-2-yl)phenyl]-1-methyl-4-{[trans-4-(2-oxopiperidin-1-yl)cyclohexyl]oxy}pyridin-2(1H)-one], the affinity corresponds to a Ki of 2220 nM.

`Cc1cc(F)cc(C)c1Oc1ccc(C(C)(C)O)cc1-c1cn(C)c(=O)cc1O[C@H]1CC[C@H](N2CC(C)(C)C2=O)CC1` [Example 30, 4-{[trans-4-(3,3-dimethyl-2-oxoazetidin-1-yl)cyclohexyl]oxy}-5-[2-(4-fluoro-2,6-dimethylphenoxy)-5-(2-hydroxypropan-2-yl)phenyl]-1-methylpyridin-2(1H)-one] had a Ki of 3300 nM.
